According to patent US6355799B1, “Substituted benzene compounds, process for their preparation, and herbicidal and defoliant compositions containing them” (ISK Americas Incorporated, priority 1997, dated 2002):

Legend:
Format in all cases: in vivo
[1] = system: sicklepod (Cassia obtusifolia, CASOB); assay: Pre-emerge test, greenhouse herbicide activity screening; conditions: pre-emerge, phytotoxicity rating 0-100 at 14 days after application
Outline: (§1)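 Compounds in acetone were track-sprayed at 15-1000 g ai/ha (187 l/ha) on sandy loam pots: pre-emerge one day after seeding, post-emerge at 2-3 leaf stage with 0.25% v/v non-ionic surfactant. Phytotoxicity was rated 14 days later on a 0 (no damage) to 100 (complete death) scale.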

[2] = system: ivyleaf morningglory (Ipomoea hederacea, IPOHE); assay: as above; conditions: pre-emerge, phytotoxicity rating 0-100 at 14 days after application
Outline: as §1

[3] = system: green foxtail (Setaria viridis, SETVI); assay: as above; conditions: pre-emerge, phytotoxicity rating 0-100 at 14 days after application
Outline: as §1

[4] = system: large crabgrass (Digitaria sanguinalis, DIGSA); assay: as above; conditions: pre-emerge, phytotoxicity rating 0-100 at 14 days after application
Outline: as §1

[5] = system: barnyardgrass (Echinochloa crus-galli, ECHCG); assay: as above; conditions: pre-emerge, phytotoxicity rating 0-100 at 14 days after application
Outline: as §1

[6] = system: lambsquarters (Chenopodium album, CHEAL); assay: as above; conditions: pre-emerge, phytotoxicity rating 0-100 at 14 days after application
Outline: as §1

[7] = system: velvetleaf (Abutilon theophrasti, ABUTH); assay: as above; conditions: pre-emerge, phytotoxicity rating 0-100 at 14 days after application
Outline: as §1

[8] = system: upland rice (Oryza sp., var. Tebonnet, RICE); assay: Post-emerge test, crop safety; conditions: post-emerge, crop damage rating 0-100 at 14 days after application
Outline: as §1

[9] = system: field corn (Zea mays L., var. Dekalb 535, CORN); assay: Post-emerge test, crop safety; conditions: post-emerge, crop damage rating 0-100 at 14 days after application
Outline: as §1

[10] = system: upland rice (Oryza sp., var. Tebonnet, RICE); assay: Pre-emerge test, crop safety; conditions: crop damage, pre-emerge, phytotoxicity rating 0-100 at 14 days after application
Outline: (§2)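 Compounds in acetone were track-sprayed at 187 l/ha, 15–1000 g ai/ha, onto sandy loam pots. Pre-emerge seeds were sown one day before spraying, with surface watering afterwards. Post-emerge plants were at the 2–3 leaf stage and sprayed with 0.25% v/v non-ionic surfactant. Injury was rated 0–100 at 14 days.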

[11] = system: field corn (Zea mays L., var. Dekalb 535, CORN); assay: Pre-emerge test, crop safety; conditions: crop damage, pre-emerge, phytotoxicity rating 0-100 at 14 days after application
Outline: as §2

[12] = system: redroot pigweed (Amaranthus retroflexus, AMARE); assay: Pre-emerge test, greenhouse herbicide activity screening; conditions: pre-emerge, phytotoxicity rating 0-100 at 14 days after application
Outline: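 Herbicidal damage is scored 0 (none) to 100 (complete plant death) two weeks after a simulated field spray. Rates span 15–1000 g ai/ha, delivered in acetone at 187 l/ha. For post-emergence treatments, plants have 2–3 leaves and the spray carries 0.25% v/v non-ionic surfactant.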

[13] = system: johnsongrass (Sorghum halepense, SORHA); assay: Post-emerge test, greenhouse herbicide activity screening; conditions: post-emerge, phytotoxicity rating 0-100 at 14 days after application
Outline: (§3)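 Fourteen days after spraying, crop and weed injury was graded visually from 0, no effect, to 100, every plant dead. Test substances were dissolved in acetone and applied at 15–1000 g ai/ha with a flat-fan nozzle. Application was either pre-emergence, one day after sowing, or post-emergence at the 2–3 leaf stage.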

[14] = system: sicklepod (Cassia obtusifolia, CASOB); assay: as above; conditions: post-emerge, phytotoxicity rating 0-100 at 14 days after application
Outline: as §3

[15] = system: ivyleaf morningglory (Ipomoea hederacea, IPOHE); assay: as above; conditions: post-emerge, phytotoxicity rating 0-100 at 14 days after application
Outline: as §3

[16] = system: green foxtail (Setaria viridis, SETVI); assay: as above; conditions: post-emerge, phytotoxicity rating 0-100 at 14 days after application
Outline: as §3

[17] = system: large crabgrass (Digitaria sanguinalis, DIGSA); assay: as above; conditions: post-emerge, phytotoxicity rating 0-100 at 14 days after application
Outline: as §3

[18] = system: redroot pigweed (Amaranthus retroflexus, AMARE); assay: as above; conditions: post-emerge, phytotoxicity rating 0-100 at 14 days after application
Outline: as §3

[19] = system: barnyardgrass (Echinochloa crus-galli, ECHCG); assay: as above; conditions: post-emerge, phytotoxicity rating 0-100 at 14 days after application
Outline: as §3

[20] = system: lambsquarters (Chenopodium album, CHEAL); assay: as above; conditions: post-emerge, phytotoxicity rating 0-100 at 14 days after application
Outline: as §3

[21] = system: velvetleaf (Abutilon theophrasti, ABUTH); assay: as above; conditions: post-emerge, phytotoxicity rating 0-100 at 14 days after application
Outline: as §3

Cc1nn(-c2c(Cl)cc(Cl)cc2NC(=O)c2ccc(F)cc2F)c(=O)n1C(F)F [Compound 6-13]
Pre-emerge Herbicidal Activity CASOB ([1]; rate 63 g ai/ha): 0
Pre-emerge Herbicidal Activity CASOB ([1]; rate 250 g ai/ha): 0
Pre-emerge Herbicidal Activity IPOHE ([2]; rate 63 g ai/ha): 0
Pre-emerge Herbicidal Activity IPOHE ([2]; rate 250 g ai/ha): 0
Pre-emerge Herbicidal Activity SETVI ([3]; rate 63 g ai/ha): 80
Pre-emerge Herbicidal Activity SETVI ([3]; rate 250 g ai/ha): 100
Pre-emerge Herbicidal Activity DIGSA ([4]; rate 63 g ai/ha): 80
Pre-emerge Herbicidal Activity DIGSA ([4]; rate 250 g ai/ha): 90
Pre-emerge Herbicidal Activity ECHCG ([5]; rate 63 g ai/ha): 10
Pre-emerge Herbicidal Activity ECHCG ([5]; rate 250 g ai/ha): 40
Pre-emerge Herbicidal Activity CHEAL ([6]; rate 63 g ai/ha): 40
Pre-emerge Herbicidal Activity CHEAL ([6]; rate 250 g ai/ha): 100
Pre-emerge Herbicidal Activity ABUTH ([7]; rate 63 g ai/ha): 10
Pre-emerge Herbicidal Activity ABUTH ([7]; rate 250 g ai/ha): 40
Post-emerge Herbicidal Activity RICE ([8]; 63 g ai/ha): 10
Post-emerge Herbicidal Activity RICE ([8]; 250 g ai/ha): 30
Post-emerge Herbicidal Activity CORN ([9]; 63 g ai/ha): 15
Post-emerge Herbicidal Activity CORN ([9]; 250 g ai/ha): 20
Pre-emerge Herbicidal Activity RICE ([10]; rate 63 g ai/ha): 0
Pre-emerge Herbicidal Activity RICE ([10]; rate 250 g ai/ha): 10
Pre-emerge Herbicidal Activity CORN ([11]; rate 63 g ai/ha): 0
Pre-emerge Herbicidal Activity CORN ([11]; rate 250 g ai/ha): 0
Pre-emerge Herbicidal Activity AMARE ([12]; rate 63 g ai/ha): 60
Pre-emerge Herbicidal Activity AMARE ([12]; rate 250 g ai/ha): 100
Post-emerge Herbicidal Activity SORHA ([13]; 63 g ai/ha): 0
Post-emerge Herbicidal Activity SORHA ([13]; 250 g ai/ha): 10
Post-emerge Herbicidal Activity CASOB ([14]; 63 g ai/ha): 0
Post-emerge Herbicidal Activity CASOB ([14]; 250 g ai/ha): 30
Post-emerge Herbicidal Activity IPOHE ([15]; 63 g ai/ha): 50
Post-emerge Herbicidal Activity IPOHE ([15]; 250 g ai/ha): 60
Post-emerge Herbicidal Activity SETVI ([16]; 63 g ai/ha): 50
Post-emerge Herbicidal Activity SETVI ([16]; 250 g ai/ha): 90
Post-emerge Herbicidal Activity DIGSA ([17]; 63 g ai/ha): 20
Post-emerge Herbicidal Activity DIGSA ([17]; 250 g ai/ha): 30
Post-emerge Herbicidal Activity AMARE ([18]; 63 g ai/ha): 70
Post-emerge Herbicidal Activity AMARE ([18]; 250 g ai/ha): 90
Post-emerge Herbicidal Activity ECHCG ([19]; 63 g ai/ha): 0
Post-emerge Herbicidal Activity ECHCG ([19]; 250 g ai/ha): 30
Post-emerge Herbicidal Activity CHEAL ([20]; 63 g ai/ha): 85
Post-emerge Herbicidal Activity CHEAL ([20]; 250 g ai/ha): 90
Post-emerge Herbicidal Activity ABUTH ([21]; 63 g ai/ha): 100
Post-emerge Herbicidal Activity ABUTH ([21]; 250 g ai/ha): 90

Cc1nn(-c2c(F)cc(Cl)cc2NC(=O)c2ccc(F)cc2F)c(=O)n1C(F)F [Compound 6-23]
Pre-emerge Herbicidal Activity CASOB ([1]; rate 63 g ai/ha): 0
Pre-emerge Herbicidal Activity CASOB ([1]; rate 250 g ai/ha): 10
Pre-emerge Herbicidal Activity IPOHE ([2]; rate 63 g ai/ha): 0
Pre-emerge Herbicidal Activity IPOHE ([2]; rate 250 g ai/ha): 20
Pre-emerge Herbicidal Activity SETVI ([3]; rate 63 g ai/ha): 0
Pre-emerge Herbicidal Activity SETVI ([3]; rate 250 g ai/ha): 60
Pre-emerge Herbicidal Activity DIGSA ([4]; rate 63 g ai/ha): 0
Pre-emerge Herbicidal Activity DIGSA ([4]; rate 250 g ai/ha): 10
Pre-emerge Herbicidal Activity ECHCG ([5]; rate 63 g ai/ha): 0
Pre-emerge Herbicidal Activity ECHCG ([5]; rate 250 g ai/ha): 0
Pre-emerge Herbicidal Activity CHEAL ([6]; rate 63 g ai/ha): 30
Pre-emerge Herbicidal Activity CHEAL ([6]; rate 250 g ai/ha): 100
Pre-emerge Herbicidal Activity ABUTH ([7]; rate 63 g ai/ha): 0
Pre-emerge Herbicidal Activity ABUTH ([7]; rate 250 g ai/ha): 50
Post-emerge Herbicidal Activity RICE ([8]; 63 g ai/ha): 0
Post-emerge Herbicidal Activity RICE ([8]; 250 g ai/ha): 15
Post-emerge Herbicidal Activity CORN ([9]; 63 g ai/ha): 0
Post-emerge Herbicidal Activity CORN ([9]; 250 g ai/ha): 15
Pre-emerge Herbicidal Activity RICE ([10]; rate 63 g ai/ha): 0
Pre-emerge Herbicidal Activity RICE ([10]; rate 250 g ai/ha): 0
Pre-emerge Herbicidal Activity CORN ([11]; rate 63 g ai/ha): 0
Pre-emerge Herbicidal Activity CORN ([11]; rate 250 g ai/ha): 0
Pre-emerge Herbicidal Activity AMARE ([12]; rate 63 g ai/ha): 50
Pre-emerge Herbicidal Activity AMARE ([12]; rate 250 g ai/ha): 100
Post-emerge Herbicidal Activity SORHA ([13]; 63 g ai/ha): 0
Post-emerge Herbicidal Activity SORHA ([13]; 250 g ai/ha): 0
Post-emerge Herbicidal Activity CASOB ([14]; 63 g ai/ha): 0
Post-emerge Herbicidal Activity CASOB ([14]; 250 g ai/ha): 10
Post-emerge Herbicidal Activity IPOHE ([15]; 63 g ai/ha): 10
Post-emerge Herbicidal Activity IPOHE ([15]; 250 g ai/ha): 30
Post-emerge Herbicidal Activity SETVI ([16]; 63 g ai/ha): 0
Post-emerge Herbicidal Activity SETVI ([16]; 250 g ai/ha): 30
Post-emerge Herbicidal Activity DIGSA ([17]; 63 g ai/ha): 0
Post-emerge Herbicidal Activity DIGSA ([17]; 250 g ai/ha): 10
Post-emerge Herbicidal Activity AMARE ([18]; 63 g ai/ha): 20
Post-emerge Herbicidal Activity AMARE ([18]; 250 g ai/ha): 85
Post-emerge Herbicidal Activity ECHCG ([19]; 63 g ai/ha): 0
Post-emerge Herbicidal Activity ECHCG ([19]; 250 g ai/ha): 0
Post-emerge Herbicidal Activity CHEAL ([20]; 63 g ai/ha): 20
Post-emerge Herbicidal Activity CHEAL ([20]; 250 g ai/ha): 70
Post-emerge Herbicidal Activity ABUTH ([21]; 63 g ai/ha): 40
Post-emerge Herbicidal Activity ABUTH ([21]; 250 g ai/ha): 55
